# Assay results published in ChEMBL document CHEMBL4680122, “Design, synthesis and biological evaluation of new Axl kinase inhibitors containing 1,3,4-oxadiazole acetamide moiety as novel linker” (Eur J Med Chem, 2020).
# What was measured:
# [1] = tested on: HT-29; assay: Antiproliferative activity against human HT-29 cells measured after 72 hrs by MTT assay; conditions: HT-29, 72 h
# [2] = molecular target: T1, Tyrosine-protein kinase receptor UFO (Homo sapiens, UniProt P30530); assay: Inhibition of human N-terminal GST-fused Axl cytoplasmic domain (464 to 885 residues) expressed in baculovirus expression system using CSKtide as substrate measured after 1 hr by mobility shift assay
# T1 sequence (P30530 whole entry): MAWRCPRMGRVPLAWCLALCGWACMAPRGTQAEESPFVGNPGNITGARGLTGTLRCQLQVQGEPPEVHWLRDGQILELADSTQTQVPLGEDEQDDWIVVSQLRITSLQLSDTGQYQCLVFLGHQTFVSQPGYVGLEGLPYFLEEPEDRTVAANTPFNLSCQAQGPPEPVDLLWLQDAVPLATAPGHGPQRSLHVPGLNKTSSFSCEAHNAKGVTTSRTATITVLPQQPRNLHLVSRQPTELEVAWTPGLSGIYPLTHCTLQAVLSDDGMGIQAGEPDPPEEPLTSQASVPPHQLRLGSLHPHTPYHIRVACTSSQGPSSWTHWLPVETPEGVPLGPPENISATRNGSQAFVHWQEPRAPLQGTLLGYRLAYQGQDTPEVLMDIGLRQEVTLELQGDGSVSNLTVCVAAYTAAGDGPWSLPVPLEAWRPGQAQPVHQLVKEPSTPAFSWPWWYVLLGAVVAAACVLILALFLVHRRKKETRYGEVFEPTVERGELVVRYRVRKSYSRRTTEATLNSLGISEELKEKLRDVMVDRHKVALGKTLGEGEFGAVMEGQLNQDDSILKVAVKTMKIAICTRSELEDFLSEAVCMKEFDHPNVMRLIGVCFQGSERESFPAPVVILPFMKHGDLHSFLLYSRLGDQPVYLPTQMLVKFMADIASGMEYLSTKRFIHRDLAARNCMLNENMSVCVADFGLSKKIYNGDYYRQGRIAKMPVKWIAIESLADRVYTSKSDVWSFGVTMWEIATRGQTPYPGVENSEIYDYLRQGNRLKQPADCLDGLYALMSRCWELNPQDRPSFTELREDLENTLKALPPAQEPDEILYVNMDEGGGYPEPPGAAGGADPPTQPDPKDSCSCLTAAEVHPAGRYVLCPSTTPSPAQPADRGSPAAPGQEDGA
# [3] = tested on: HT-29; assay: Potency index, ratio of foretinib IC50 to test compound IC50 for antiproliferative activity against human HT-29 cells; assay type: functional
# [4] = molecular target: Mast/stem cell growth factor receptor Kit (Homo sapiens, UniProt P10721); assay: Inhibition of human N-terminal GST-tagged c-Kit cytoplasmic domain (544 to end residues) expressed in baculovirus infected Sf21 insect cells using peptide substrate measured after 1 hr by mobility shift assay
# [5] = molecular target: T2, Tyrosine-protein kinase receptor TYRO3 (Homo sapiens, UniProt Q06418); assay: Inhibition of Tyro3 (unknown origin)
# T2 sequence (Q06418 whole entry): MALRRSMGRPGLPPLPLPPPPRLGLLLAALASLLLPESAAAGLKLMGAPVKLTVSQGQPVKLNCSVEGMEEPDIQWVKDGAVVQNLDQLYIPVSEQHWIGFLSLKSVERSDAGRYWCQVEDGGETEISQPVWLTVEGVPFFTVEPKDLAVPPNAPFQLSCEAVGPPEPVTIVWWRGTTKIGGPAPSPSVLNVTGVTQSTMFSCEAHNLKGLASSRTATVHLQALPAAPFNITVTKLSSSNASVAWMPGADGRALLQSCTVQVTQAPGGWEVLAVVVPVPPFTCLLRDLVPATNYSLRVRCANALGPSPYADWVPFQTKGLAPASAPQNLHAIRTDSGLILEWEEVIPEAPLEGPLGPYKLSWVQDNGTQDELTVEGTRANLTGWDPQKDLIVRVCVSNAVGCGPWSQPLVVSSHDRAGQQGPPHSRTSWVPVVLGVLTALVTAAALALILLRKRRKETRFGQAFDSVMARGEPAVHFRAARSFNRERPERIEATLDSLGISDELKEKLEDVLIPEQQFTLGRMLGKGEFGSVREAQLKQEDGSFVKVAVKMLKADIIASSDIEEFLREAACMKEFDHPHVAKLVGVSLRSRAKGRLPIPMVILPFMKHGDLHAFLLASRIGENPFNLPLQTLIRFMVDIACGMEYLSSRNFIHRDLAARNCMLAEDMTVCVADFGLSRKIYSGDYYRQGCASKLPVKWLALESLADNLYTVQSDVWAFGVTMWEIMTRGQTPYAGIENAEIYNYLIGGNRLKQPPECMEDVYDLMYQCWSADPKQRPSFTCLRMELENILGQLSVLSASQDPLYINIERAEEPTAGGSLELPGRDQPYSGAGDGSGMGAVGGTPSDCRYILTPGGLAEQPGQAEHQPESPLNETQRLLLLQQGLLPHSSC
# [6] = molecular target: Aurora kinase B (Homo sapiens) (UniProt Q96GD4); assay: Inhibition of Aurora-B (unknown origin) at 200 nM relative to control
# [7] = molecular target: T3, Tyrosine-protein kinase Mer (Homo sapiens, UniProt Q12866); assay: Inhibition of MER (unknown origin)
# T3 sequence (Q12866 whole entry): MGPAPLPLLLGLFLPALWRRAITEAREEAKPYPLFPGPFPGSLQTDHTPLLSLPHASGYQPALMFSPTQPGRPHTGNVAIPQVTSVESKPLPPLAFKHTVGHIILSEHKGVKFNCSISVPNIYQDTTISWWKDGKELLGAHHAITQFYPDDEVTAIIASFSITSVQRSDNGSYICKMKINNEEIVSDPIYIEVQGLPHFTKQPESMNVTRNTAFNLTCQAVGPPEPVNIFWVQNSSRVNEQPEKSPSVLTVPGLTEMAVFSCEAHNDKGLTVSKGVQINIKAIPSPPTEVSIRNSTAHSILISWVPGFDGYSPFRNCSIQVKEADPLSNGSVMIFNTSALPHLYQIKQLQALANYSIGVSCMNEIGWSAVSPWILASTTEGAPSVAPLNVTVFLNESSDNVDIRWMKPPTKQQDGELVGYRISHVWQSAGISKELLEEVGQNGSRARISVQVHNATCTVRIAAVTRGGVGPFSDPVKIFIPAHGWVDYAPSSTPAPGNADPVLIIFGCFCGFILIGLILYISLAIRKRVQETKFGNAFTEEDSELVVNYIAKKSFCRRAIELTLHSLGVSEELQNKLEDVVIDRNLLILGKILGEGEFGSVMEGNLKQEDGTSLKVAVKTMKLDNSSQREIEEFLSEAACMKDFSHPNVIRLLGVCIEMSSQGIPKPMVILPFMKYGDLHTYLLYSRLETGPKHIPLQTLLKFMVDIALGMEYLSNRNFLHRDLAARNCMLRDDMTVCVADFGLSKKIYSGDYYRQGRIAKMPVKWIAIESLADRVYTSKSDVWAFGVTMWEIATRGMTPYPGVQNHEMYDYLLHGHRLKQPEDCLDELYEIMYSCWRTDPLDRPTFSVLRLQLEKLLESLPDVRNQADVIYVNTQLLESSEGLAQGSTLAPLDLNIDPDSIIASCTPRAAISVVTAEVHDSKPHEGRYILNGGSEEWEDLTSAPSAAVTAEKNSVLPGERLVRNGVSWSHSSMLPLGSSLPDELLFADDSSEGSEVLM
# Chain of Mast/stem cell growth factor receptor Kit (P10721 whole entry, the tested form may be a part): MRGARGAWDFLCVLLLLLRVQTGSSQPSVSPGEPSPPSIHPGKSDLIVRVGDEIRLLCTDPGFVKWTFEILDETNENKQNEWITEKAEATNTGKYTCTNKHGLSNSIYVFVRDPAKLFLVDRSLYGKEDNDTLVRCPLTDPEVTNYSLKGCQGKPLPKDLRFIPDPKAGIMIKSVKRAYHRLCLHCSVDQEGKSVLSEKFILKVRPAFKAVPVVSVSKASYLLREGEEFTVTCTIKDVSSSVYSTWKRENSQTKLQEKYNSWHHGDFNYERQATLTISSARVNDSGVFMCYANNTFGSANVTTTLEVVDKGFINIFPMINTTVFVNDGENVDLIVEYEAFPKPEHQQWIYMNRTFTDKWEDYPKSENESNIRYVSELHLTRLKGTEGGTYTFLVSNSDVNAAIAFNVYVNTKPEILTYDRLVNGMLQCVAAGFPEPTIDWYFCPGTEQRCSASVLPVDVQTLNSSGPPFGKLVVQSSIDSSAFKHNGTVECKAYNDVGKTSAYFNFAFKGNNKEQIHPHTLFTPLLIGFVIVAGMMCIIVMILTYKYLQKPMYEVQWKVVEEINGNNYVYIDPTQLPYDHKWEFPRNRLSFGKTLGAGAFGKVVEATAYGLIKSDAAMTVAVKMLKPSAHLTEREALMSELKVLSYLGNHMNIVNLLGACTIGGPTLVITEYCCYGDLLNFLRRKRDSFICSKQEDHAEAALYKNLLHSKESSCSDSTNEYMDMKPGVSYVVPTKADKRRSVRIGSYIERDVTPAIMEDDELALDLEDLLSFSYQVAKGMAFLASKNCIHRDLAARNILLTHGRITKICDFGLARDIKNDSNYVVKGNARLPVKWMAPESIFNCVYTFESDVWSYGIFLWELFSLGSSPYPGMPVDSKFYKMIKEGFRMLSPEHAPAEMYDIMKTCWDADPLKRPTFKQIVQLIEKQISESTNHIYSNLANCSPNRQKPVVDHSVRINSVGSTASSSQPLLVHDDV
# Chain of Aurora kinase B (Homo sapiens) (Q96GD4 whole entry): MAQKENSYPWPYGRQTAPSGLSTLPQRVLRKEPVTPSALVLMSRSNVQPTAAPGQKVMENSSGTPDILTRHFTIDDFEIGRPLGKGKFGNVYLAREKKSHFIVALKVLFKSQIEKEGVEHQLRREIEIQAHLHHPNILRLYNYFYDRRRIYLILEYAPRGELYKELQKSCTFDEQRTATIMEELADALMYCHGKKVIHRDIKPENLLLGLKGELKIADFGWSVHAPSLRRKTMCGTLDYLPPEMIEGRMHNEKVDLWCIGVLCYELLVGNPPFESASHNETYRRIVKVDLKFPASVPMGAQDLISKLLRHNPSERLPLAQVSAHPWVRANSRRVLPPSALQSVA
compound,measurement,setting,value
COc1cc2c(Oc3ccc(NC(=O)C4(c5nnc(-c6ccc(F)cc6)o5)CC4)cc3F)ccnc2cc1OCCCN1CCCCC1,IC50,[1],1030 nM
same,IC50,[2],10 nM
same,Ratio IC50,[3],1.57
same,IC50,[4],63 nM
same,IC50,[5],> 200 nM
same,inhibition,[6],> 80%
same,IC50,[7],> 200 nM
